Laboratory results from ChEMBL document CHEMBL1201862, “PubChem BioAssay data set” (2004).
Where “and” joins values, the source holds several entries; their conditions need not be identical. Equal values may be shown once.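 Growth conditions: 96-well plates. Treatment: test compound, 48 hours, 5 concentrations. Analysis: linear interpolation between bracketing concentrations; unreached endpoints set to highest concentration. Abbreviation: GI50, concentration required for 50% inhibition of growth.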 Calls of active or inactive are those of the source. No stated cut-off is given here; in the data, active = GI50 up to about 1.1 µM and inactive = higher.

Legend:
Assay in all cases: NCI anticancer screen, dose series, 48 h
[1] = test system: A549
[2] = test system: CAKI-1
[3] = test system: COLO 205
[4] = test system: HOP-92
[5] = test system: IGROV-1
[6] = test system: KM12
[7] = test system: LOX IMVI
[8] = test system: OVCAR-8
[9] = test system: SF-268
[10] = test system: SK-OV-3
[11] = test system: U-251
[12] = test system: UACC-257
[13] = test system: NCI-H460
[14] = test system: SF-539
[15] = test system: NCI-H226

Measured: GI50

O=c1cc(-c2ccccc2)oc2cc(OCCSCCCCCCCCCCSCCOc3ccc4c(=O)cc(-c5ccccc5)oc4c3)ccc12
inactive: [1] > 100 µM | [2] > 100 µM | [3] > 100 µM | [4] 43.5 µM | [5] > 100 µM | [6] > 100 µM | [7] > 100 µM | [8] > 100 µM | [9] 74.3 µM | [10] 74.1 µM | [11] > 100 µM | [12] > 100 µM

COC1/C(=C\C(=O)OC(C)(C)C)c2ccccc2N1C(C)=O (stereo not given)
inactive: [1] > 100 µM | [2] > 100 µM | [3] > 100 µM | [5] > 100 µM | [6] 9.53 µM | [13] > 100 µM | [8] > 100 µM | [14] > 100 µM | [10] > 100 µM | [11] > 100 µM | [12] > 100 µM

Nc1ncnc2c1ncn2C1CC(OCc2ccccc2[N+](=O)[O-])C(CO)O1 (stereo not given)
inactive: [1] 21.7 µM | [3] 9.2 µM | [4] 21.4 µM | [5] 28.9 µM | [6] 20 µM | [7] 20.9 µM | [15] 11.8 µM | [13] 20.1 µM | [8] 23.8 µM | [9] 28.2 µM | [14] 44.5 µM | [10] 21.7 µM | [11] 24.2 µM | [12] 18.5 µM

CCCCOC1CC2(c3ccc(OC)cc3)C(=O)c3ccccc3N2O1 (stereo not given)
inactive: [1] 43.8 µM | [2] 41.6 µM | [3] 27.1 µM | [5] > 10 µM | [6] 62.2 µM | [7] > 10 µM | [15] > 10 µM | [13] > 10 µM | [8] 82.2 µM | [9] 50.5 µM | [14] 90.6 µM | [10] > 100 µM | [11] > 10 µM | [12] 16 µM

CSc1nnc2n1-c1ccccc1SCC2
inactive: [1] > 100 µM | [3] > 100 µM | [4] > 100 µM | [5] > 100 µM | [6] > 100 µM | [7] > 100 µM | [15] > 100 µM | [13] > 100 µM | [8] > 100 µM | [9] > 100 µM | [14] > 100 µM | [10] > 100 µM | [11] > 100 µM | [12] > 100 µM

CCCCCCCCCCCCCP(=O)(O)OCC
inactive: [1] > 100 µM | [3] > 100 µM | [4] > 100 µM | [5] > 100 µM | [6] > 100 µM | [7] > 100 µM | [15] > 100 µM | [13] > 100 µM | [8] > 100 µM | [9] > 100 µM | [14] > 100 µM | [11] > 100 µM | [12] > 100 µM

CC1(C)OC2C(O1)[C@H]1OC(C(Cl)(Cl)Cl)=N[C@H]1C(I)[C@H]2N1C(=O)c2ccccc2C1=O (stereo not given in full)
inactive: [1] 32.6 µM | [3] 33.6 µM | [4] 40.6 µM | [5] 25.5 µM | [6] 49.7 µM | [7] 51.2 µM | [15] > 100 µM | [13] 54.6 µM | [8] > 100 µM | [9] 71.6 µM | [14] > 100 µM | [11] 84.9 µM | [12] 36.1 µM

O=C1C=CC2(O)OCC3C=C4O[C@@H]5OC6(CCCCC6)O[C@@H]5C4[C@@H]2[C@@H]13 (stereo not given in full)
inactive: [1] > 100 µM | [2] 22.7 µM | [3] 15.3 µM | [4] 13.2 µM | [5] 56.4 µM | [6] 38.5 µM | [7] 42.6 µM | [15] 33.6 µM | [13] > 100 µM | [8] 24.9 µM | [9] 33.2 µM | [10] > 100 µM | [11] > 100 µM | [12] 17.8 µM

NCCCC1NC(=O)/C(=C(O)/C=C/C2CCC[C@@H]2CC2SCCS2)C1=O (stereo not given in full)
inactive: [1] > 100 µM | [3] 37.2 µM | [4] 38.3 µM | [5] > 100 µM | [6] > 100 µM | [7] > 100 µM | [15] 71.8 µM | [13] > 100 µM | [8] > 100 µM | [9] > 100 µM | [14] > 100 µM | [10] > 100 µM | [11] > 100 µM | [12] 76.9 µM

COC(=O)CC(C(C(C)=O)C(=O)OCc1ccccc1)N1C(=O)OC(c2ccccc2)C1c1ccccc1 (stereo not given)
inactive: [1] 68.5 µM and 76.2 µM | [2] 81.1 µM and 83.4 µM | [3] 72.4 µM and 77.4 µM | [5] > 100 µM | [6] 42 µM and 35.6 µM | [7] 78.5 µM | [13] > 100 µM | [8] 70.3 µM and 71.1 µM | [9] 40.7 µM and 54.5 µM | [10] > 100 µM | [11] 96.6 µM and 75.5 µM
